In patent US4705777A, “Cationic oligopeptides having microbicidal activity” (priority 1985, dated 1987):

Key:
VSV = format: cell-based, Vesicular stomatitis virus; conditions: 10 IU/ml, human GM 2504 fibroblast cell line
HSV-1 = assay: Virus yield reduction, HSV-1; format: cell-based, Herpes simplex, Type 1; conditions: 100 IU/ml, human GM 2504 fibroblast cell line
[1] = tested on: Staphylococcus aureus 502A; assay: Bactericidal activity of human neutrophil peptides, S. aureus; format: cell-based; conditions: comparison to Table VI
E. coli ML-35 = assay: Bactericidal activity of human neutrophil peptides, E. coli ML-35; format: cell-based; conditions: comparison to Table VI
[2] = tested on: Cryptococcus neoformans C-384 (Type C); assay: Antifungal assay of human neutrophil peptides; format: cell-based; conditions: comparison to Table VI

Substance	decrease in VSV yield (VSV) [log10]	decrease in HSV-1 yield (HSV-1) [log10]	microbicidal activity compared with the other HNP, S. aureus 502A [1]	microbicidal activity compared with the other HNP, E. coli ML-35 (E. coli ML-35)	microbicidal activity compared with the other HNP, C. neoformans C-384 [2]
IFN-α [reference compound]	6	0.6	–	–	–
asp cys tyr cys arg ile pro ala cys ile ala gly glu arg arg tyr gly thr cys ile tyr gln gly arg leu trp ala phe cys cys [HNP-3]	–	–	less microbicidal than the other oligopeptides	less microbicidal than the other oligopeptides	less microbicidal than the other oligopeptides
